Data from US10398751B2, “Pharmaceutical compositions of water soluble peptides with poor solubility in isotonic conditions and methods for their use” (STRONGBRIDGE IRELAND LIMITED, priority 2016, dated 2019).
Where a name gives a salt, the structure may show the parent alone. Read-outs that look alike come from different tables or passages of the source.

Assay: Solubility screening of veldoreotide acetate (10 mg, incremental volumes of medium, USP definition)
Assay type: physicochemical
Text: The solubility of veldoreotide acetate in aqueous media was screened by the following method. A fixed amount of 10 milligrams of the peptide was weighed and dissolved at ambient temperature by increased (incremental) volumes of the tested medium until a complete solubility was observed, i.e, clear/transparent solution and absence of any precipitates (the solubility endpoint values were defined according to USP guidance). Following the results of the screening studies, several media were selected for verification studies based on quantitative assessment of the peptide concentration by HPLC (maximal solubility). The results of the screening study are depicted in Table 1 while the results of the verification studies are included in Table 2.

solubility (Acetone (USP), 0.1 ml Freely soluble (0.1 g/ml), 10 mg in Acetone (USP)): > 100 mg/mL | solubility (Acetone (USP), 10 ml Slightly soluble (0.001 g/ml; 1 mg/ml), 10 mg in Acetone (USP)): > 1 mg/mL | solubility (Dextrose 5% (USP), 10 mg in Dextrose 5% (USP), read-out: 0.01 ml Very soluble (1 g/ml)): < 1000 mg/mL | solubility (Dextrose 5% (USP), 10 mg in Dextrose 5% (USP), read-out: 0.5 ml Soluble (0.02 g/ml; 20 mg/ml)): > 20 mg/mL | solubility (Dextrose 5% (USP), 10 mg in Dextrose 5% (USP), read-out: 1 ml Sparingly soluble (0.01 g/ml; 10 mg/ml)): > 10 mg/mL | solubility (Dextrose 5% (USP), 0.1 ml Freely soluble (0.1 g/ml), 10 mg in Dextrose 5% (USP)): > 100 mg/mL | solubility (Dextrose 5% (USP), 10 ml Slightly soluble (0.001 g/ml; 1 mg/ml), 10 mg in Dextrose 5% (USP)): > 1 mg/mL | solubility (Ethanol (USP), 10 mg in Ethanol (USP), read-out: 0.01 ml Very soluble (1 g/ml)): < 1000 mg/mL | solubility (Ethanol (USP), 10 mg in Ethanol (USP), read-out: 0.5 ml Soluble (0.02 g/ml; 20 mg/ml)): > 20 mg/mL | solubility (Ethanol (USP), 10 mg in Ethanol (USP), read-out: 1 ml Sparingly soluble (0.01 g/ml; 10 mg/ml)): > 10 mg/mL | solubility (Ethanol (USP), 0.1 ml Freely soluble (0.1 g/ml), 10 mg in Ethanol (USP)): > 100 mg/mL | solubility (Ethanol (USP), 10 ml Slightly soluble (0.001 g/ml; 1 mg/ml), 10 mg in Ethanol (USP)): > 1 mg/mL | solubility (Lactic acid 37 mM, Mannitol 250 mM, pH 4.3, 10 mg in Lactic acid 37 mM, Mannitol 250 mM (pH 4.3), read-out: 0.01 ml Very soluble (1 g/ml)): < 1000 mg/mL | solubility (Lactic acid 37 mM, Mannitol 250 mM, pH 4.3, 10 mg in Lactic acid 37 mM, Mannitol 250 mM (pH 4.3), read-out: 0.5 ml Soluble (0.02 g/ml; 20 mg/ml)): > 20 mg/mL | solubility (Lactic acid 37 mM, Mannitol 250 mM, pH 4.3, 10 mg in Lactic acid 37 mM, Mannitol 250 mM (pH 4.3), read-out: 1 ml Sparingly soluble (0.01 g/ml; 10 mg/ml)): > 10 mg/mL | solubility (Lactic acid 37 mM, Mannitol 250 mM, pH 4.3, 0.1 ml Freely soluble (0.1 g/ml), 10 mg in Lactic acid 37 mM, Mannitol 250 mM (pH 4.3)): > 100 mg/mL | solubility (Lactic acid 37 mM, Mannitol 250 mM, pH 4.3, 10 ml Slightly soluble (0.001 g/ml; 1 mg/ml), 10 mg in Lactic acid 37 mM, Mannitol 250 mM (pH 4.3)): > 1 mg/mL | solubility (PBS, pH 7.2, 10 mg in PBS pH 7.2, read-out: 0.01 ml Very soluble (1 g/ml)): < 1000 mg/mL | solubility (PBS, pH 7.2, 10 mg in PBS pH 7.2, read-out: 0.5 ml Soluble (0.02 g/ml; 20 mg/ml)): < 20 mg/mL | solubility (PBS, pH 7.2, 10 mg in PBS pH 7.2, read-out: 1 ml Sparingly soluble (0.01 g/ml; 10 mg/ml)): < 10 mg/mL | solubility (PBS, pH 7.2, 0.1 ml Freely soluble (0.1 g/ml), 10 mg in PBS pH 7.2): < 100 mg/mL | solubility (PBS, pH 7.2, 10 ml Slightly soluble (0.001 g/ml; 1 mg/ml), 10 mg in PBS pH 7.2): < 1 mg/mL | solubility (Propylene glycol, 10 mg in Propylene glycol, read-out: 0.01 ml Very soluble (1 g/ml)): < 1000 mg/mL | solubility (Propylene glycol, 10 mg in Propylene glycol, read-out: 0.5 ml Soluble (0.02 g/ml; 20 mg/ml)): > 20 mg/mL | solubility (Propylene glycol, 10 mg in Propylene glycol, read-out: 1 ml Sparingly soluble (0.01 g/ml; 10 mg/ml)): > 10 mg/mL | solubility (Propylene glycol, 0.1 ml Freely soluble (0.1 g/ml), 10 mg in Propylene glycol): > 100 mg/mL | solubility (Propylene glycol, 10 ml Slightly soluble (0.001 g/ml; 1 mg/ml), 10 mg in Propylene glycol): > 1 mg/mL | solubility (Saline (USP) (0.9% NaCl), pH 4.5, 10 mg in Saline (USP) (0.9% NaCl) pH 4.5, read-out: 0.01 ml Very soluble (1 g/ml)): < 1000 mg/mL | solubility (Saline (USP) (0.9% NaCl), pH 4.5, 10 mg in Saline (USP) (0.9% NaCl) pH 4.5, read-out: 0.5 ml Soluble (0.02 g/ml; 20 mg/ml)): < 20 mg/mL | solubility (Saline (USP) (0.9% NaCl), pH 4.5, 10 mg in Saline (USP) (0.9% NaCl) pH 4.5, read-out: 1 ml Sparingly soluble (0.01 g/ml; 10 mg/ml)): < 10 mg/mL | solubility (Saline (USP) (0.9% NaCl), pH 4.5, 0.1 ml Freely soluble (0.1 g/ml), 10 mg in Saline (USP) (0.9% NaCl) pH 4.5): < 100 mg/mL | solubility (Saline (USP) (0.9% NaCl), pH 4.5, 10 ml Slightly soluble (0.001 g/ml; 1 mg/ml), 10 mg in Saline (USP) (0.9% NaCl) pH 4.5): < 1 mg/mL | solubility (caprylic acid, 10 mg in Caprylic acid, read-out: 0.01 ml Very soluble (1 g/ml)): < 1000 mg/mL | solubility (caprylic acid, 10 mg in Caprylic acid, read-out: 0.5 ml Soluble (0.02 g/ml; 20 mg/ml)): > 20 mg/mL | solubility (caprylic acid, 10 mg in Caprylic acid, read-out: 1 ml Sparingly soluble (0.01 g/ml; 10 mg/ml)): > 10 mg/mL | solubility (caprylic acid, 0.1 ml Freely soluble (0.1 g/ml), 10 mg in Caprylic acid): < 100 mg/mL | solubility (caprylic acid, 10 ml Slightly soluble (0.001 g/ml; 1 mg/ml), 10 mg in Caprylic acid): > 1 mg/mL | solubility (double distilled water, 10 mg in DDW (Double distilled water), read-out: 0.01 ml Very soluble (1 g/ml)): < 1000 mg/mL | solubility (double distilled water, 10 mg in DDW (Double distilled water), read-out: 0.5 ml Soluble (0.02 g/ml; 20 mg/ml)): > 20 mg/mL | solubility (double distilled water, 10 mg in DDW (Double distilled water), read-out: 1 ml Sparingly soluble (0.01 g/ml; 10 mg/ml)): > 10 mg/mL | solubility (double distilled water, 0.1 ml Freely soluble (0.1 g/ml), 10 mg in DDW (Double distilled water)): > 100 mg/mL | solubility (double distilled water, 10 ml Slightly soluble (0.001 g/ml; 1 mg/ml), 10 mg in DDW (Double distilled water)): > 1 mg/mL | solubility (glycerol, 10 mg in Glycerol, read-out: 0.01 ml Very soluble (1 g/ml)): < 1000 mg/mL | solubility (glycerol, 10 mg in Glycerol, read-out: 0.5 ml Soluble (0.02 g/ml; 20 mg/ml)): > 20 mg/mL | solubility (glycerol, 10 mg in Glycerol, read-out: 1 ml Sparingly soluble (0.01 g/ml; 10 mg/ml)): > 10 mg/mL | solubility (glycerol, 0.1 ml Freely soluble (0.1 g/ml), 10 mg in Glycerol): < 100 mg/mL | solubility (glycerol, 10 ml Slightly soluble (0.001 g/ml; 1 mg/ml), 10 mg in Glycerol): > 1 mg/mL | solubility (oleic acid, 10 mg in Oleic acid, read-out: 0.01 ml Very soluble (1 g/ml)): < 1000 mg/mL | solubility (oleic acid, 10 mg in Oleic acid, read-out: 0.5 ml Soluble (0.02 g/ml; 20 mg/ml)): < 20 mg/mL | solubility (oleic acid, 10 mg in Oleic acid, read-out: 1 ml Sparingly soluble (0.01 g/ml; 10 mg/ml)): < 10 mg/mL | solubility (oleic acid, 0.1 ml Freely soluble (0.1 g/ml), 10 mg in Oleic acid): < 100 mg/mL | solubility (oleic acid, 10 ml Slightly soluble (0.001 g/ml; 1 mg/ml), 10 mg in Oleic acid): < 1 mg/mL | solubility (refined vegetable oils (olive, cotton, coconut, canola), 10 mg in Refined vegetable oils, Olive, Cotton, Coconut, Canola, read-out: 0.01 ml Very soluble (1 g/ml)): < 1000 mg/mL | solubility (refined vegetable oils (olive, cotton, coconut, canola), 10 mg in Refined vegetable oils, Olive, Cotton, Coconut, Canola, read-out: 0.5 ml Soluble (0.02 g/ml; 20 mg/ml)): < 20 mg/mL | solubility (refined vegetable oils (olive, cotton, coconut, canola), 10 mg in Refined vegetable oils, Olive, Cotton, Coconut, Canola, read-out: 1 ml Sparingly soluble (0.01 g/ml; 10 mg/ml)): < 10 mg/mL | solubility (refined vegetable oils (olive, cotton, coconut, canola), 0.1 ml Freely soluble (0.1 g/ml), 10 mg in Refined vegetable oils, Olive, Cotton, Coconut, Canola): < 100 mg/mL | solubility (refined vegetable oils (olive, cotton, coconut, canola), 10 ml Slightly soluble (0.001 g/ml; 1 mg/ml), 10 mg in Refined vegetable oils, Olive, Cotton, Coconut, Canola): < 1 mg/mL | solubility (water for injection (WFI-USP), 10 mg in WFI-USP (water for injection), read-out: 0.01 ml Very soluble (1 g/ml)): < 1000 mg/mL | solubility (water for injection (WFI-USP), 10 mg in WFI-USP (water for injection), read-out: 0.5 ml Soluble (0.02 g/ml; 20 mg/ml)): > 20 mg/mL | solubility (water for injection (WFI-USP), 10 mg in WFI-USP (water for injection), read-out: 1 ml Sparingly soluble (0.01 g/ml; 10 mg/ml)): > 10 mg/mL | solubility (water for injection (WFI-USP), 0.1 ml Freely soluble (0.1 g/ml), 10 mg in WFI-USP (water for injection)): < 100 mg/mL | solubility (water for injection (WFI-USP), 10 ml Slightly soluble (0.001 g/ml; 1 mg/ml), 10 mg in WFI-USP (water for injection)): > 1 mg/mL
Compound: C[C@@H](O)[C@@H]1NC(=O)[C@H](CCCCN)NC(=O)[C@@H](Cc2c[nH]c3ccccc23)NC(=O)[C@H](Cc2c[nH]c3ccccc23)NC(=O)[C@H](Cc2ccccc2)NC(=O)CCCNC(=O)CCCN(CC(N)=O)C(=O)[C@H](Cc2ccccc2)NC1=O [Veldoreotide Acetate, Cyclo(-γ-aminobutyryl-L-phenylalanyl-L-tryptophanyl-D-tryptophanyl-L-lysyl-L-threonyl-L-phenylalanyl-N-carbamoylmethyl-γ-aminobutyryl), acetate salt]
